Experimental data published in patent US20250186405A1, “Compound For Use In Treating Narcolepsy” (Alkermes, Inc., priority 2023, published 2025).
Where two headings read alike, the source gives them in different places.

Experiments:
[1] = tested on: subjects with narcolepsy type-1 (NT1); assay: Part 4 NT1: Maintenance of Wakefulness Test (MWT) sleep latency; assay type: in vivo, human; conditions: for change from baseline in average sleep latency on MWT vs placebo: 1, 3 and 8 mg
Description: On Day −1, approximately 25 hours prior to study drug administration (on Day 1), baseline assessments for Maintenance of Wakefulness Test (MWT) began and were collected in a series of trials over approximately 10 hours.
At specified time points (Part 4), MWT assessments were performed and took up to 40 minutes to complete. The MWT is the standard objective measure of an individual's ability to remain awake during the daytime in a darkened, quiet environment and is commonly used to assess response to treatment. The MWT assessments were performed according to American Academy of Sleep Medicine (AASM) guidance. During the MWT trials, subjects were seated in a bed or reclining chair in a darkened room with their back and head supported such that their neck is not uncomfortably flexed or extended. Subjects are instructed to sit still and remain awake for as long as possible during each 40-minute trial. If the subject fell asleep during a trial, they were awakened, and the trial was terminated. […] Upon completion of the trial, the subject returned to a normal environment/ambiance and remained awake (and were awakened if they fall asleep) until the next trial.
Once Part 4 was completed, the EEG data recorded during the MWT, as well as the technician notes, were transferred to the EEG vendor for further analysis. Technician notes were also maintained for transfer to Sponsor at the end of the study. A precise assessment of sleep latency was conducted by an experienced sleep scorer from the EEG vendor, and spectral analysis was performed on the EEG data recorded during MWT to assess absolute and relative powers in standard frequency bands (i.e., qEEG). All raw data and analysis results were transferred to the Sponsor.
For the changes from baseline in average sleep latency across the first 4 sessions of the MWT, descriptive statistics were provided by dose level. Mixed model with repeated measure (MMRM) for the 4-period crossover design were conducted with the change from baseline as a dependent variable, and the dose level and the period as fixed factors. The differences in the least square means between each Compound A dose level and the placebo (each Compound A dose level—the placebo), and the 2-sided CIs were provided.
Evaluation of Compound A effects on average sleep latency across 4 timepoints of MWT (2-, 4-, 6-, and 8-hours post-dose) from 4 patients with NT1 has been conducted at pre-dose baseline series on Day −1, and each of the crossovers (Days 1, 3, 5 and 7), testing placebo, and active dose levels of 1, 3, and 8 mg in the patients with NT1 compared to placebo.
Evaluation of Compound A effects on average sleep latency across 4 timepoints of MWT (2-, 4-, 6-, and 8-hours post-dose) from 10 patients with NT1 (including the 4 patients described above in 4.19.1) has been conducted at pre-dose baseline series on Day −1, and each of the crossovers (Days 1, 3, 5 and 7), testing placebo, and active dose levels of 1, 3, and 8 mg in the patients with NT1 compared to placebo.

[2] = Part 2 MAD: plasma pharmacokinetics, once daily for 10 days; assay type: in vivo, human; conditions: for Cmax / AUC(0-t) / concentration at 8 h / Tmax / half-life / Vd/F: oral; for AUC(0-t): read-out: AUC0-24, ss; for concentration at 8 h: read-out: C8 (concentration at 8-hour postdose); for Vd/F: read-out: Vz/F
Description: Part 2 of the study is a MAD evaluation in healthy subjects consisting of 4 cohorts: Cohorts 1-4 received powder-in-capsule or matching placebo. Dose levels were as follows:
Blood samples (up to 5 mL per sample) were collected for PK analysis of Compound A and its metabolite(s). The actual time of sample collection was recorded. The PK samples of the subjects randomized to placebo treatment were not analyzed. Any remaining plasma PK samples were used to explore the presence of any additional metabolites and/or biomarkers.
Plasma and urine concentrations of Compound A and its metabolite(s) were measured using a validated high-performance liquid chromatography with tandem mass spectrometry.
The plasma PK parameters of Compound A and its metabolite(s) were determined from the plasma concentration-time profiles for all evaluable subjects. Actual sampling times, rather than scheduled sampling times, were used in all computations involving sampling times. The below lower limit of quantitation concentrations were set to zero prior to PK parameter estimation.
The PK population was used for summaries of plasma and urine Compound A and its metabolite(s) concentrations and for analyses, summaries, and listing of PK parameters. Accumulation ratio (Day 10/Day 1) for Cmax and AUC0-24 was estimated with 90% CIs using a linear fixed effects model on log-transformed parameters. Dose effect was assessed using a linear fixed effects model on log-transformed t1/2. Dose proportionality was assessed using a power model on Cmax and AUC0-24 on Day 1 and Day 10 separately. Within-subject and total standard deviations for log-transformed Cmax and AUC0-24 were estimated within a linear mixed effects framework.

[3] = 1 mg, NT1, N = 9 (10-patient analysis, Table 13a)
[4] = 3 mg, NT1, N = 9 (10-patient analysis, Table 13a)
[5] = 8 mg, NT1, N = 10 (10-patient analysis, Table 13a)
[6] = human, plasma, 3 mg, Day 1, geometric mean
[7] = human, plasma, 3 mg, Day 10, geometric mean
[8] = human, plasma, 8 mg, Day 1, geometric mean
[9] = human, plasma, 8 mg, Day 10, geometric mean
[10] = human, plasma, 15 mg, Day 1, geometric mean
[11] = human, plasma, 15 mg, Day 10, geometric mean
[12] = human, plasma, 25 mg, Day 1, geometric mean
[13] = human, plasma, 25 mg, Day 10, geometric mean

Question: Which results are given for `CS(=O)(=O)N[C@H]1CCCN2C(=O)COc3ccccc3C3CCC(CC3)OCC12` (stereo partly drawn) [Compound A, N-[(4S,4aR,7α,10α)-1,2,3,4,4a,5,7,8,9,10,16,17-dodecahydro-17-oxo-7,10-ethanopyrido[1,2-d][1,7,4]benzodioxaazacyclotridecin-4-yl]methanesulfonamide]?
Answer: average sleep latency improvement on MWT ([1]; 1 mg, 4 patients with NT1): 19.5 min; Change from Day −1 in Average Sleep Latency on the MWT, LSM difference vs placebo ([1]; 1 mg, NT1, N = 4): 19.47 min; Change from Day −1 in Average Sleep Latency on the MWT, LSM ([1]; 1 mg, NT1, N = 4, average of 2, 4, 6, 8 h post-dose): 18.41 min; Change from Day −1 in Average Sleep Latency on the MWT, LSM [1, 3]: 16.95 min; Change from Day −1 in Average Sleep Latency on the MWT, LSM difference vs placebo [1, 3]: 18.38 min; MWT by-timepoint effect ([1]; 3 mg, 4 patients with NT1): maximum effect over 2, 4 and 6-hour timepoints, and meaningful effect at 8 hours; Change from Day −1 in Average Sleep Latency on the MWT, LSM difference vs placebo ([1]; 3 mg, NT1, N = 4): 31.16 min; Change from Day −1 in Average Sleep Latency on the MWT, LSM ([1]; 3 mg, NT1, N = 4, average of 2, 4, 6, 8 h post-dose): 30.09 min; Change from Day −1 in Average Sleep Latency on the MWT, LSM [1, 4]: 21.15 min; Change from Day −1 in Average Sleep Latency on the MWT, LSM difference vs placebo [1, 4]: 22.57 min; MWT effect at every timepoint (maximum score 40 minutes) ([1]; 8 mg, 4 patients with NT1, including 10 hours post-dose): 40 min; Change from Day −1 in Average Sleep Latency on the MWT, LSM difference vs placebo ([1]; 8 mg, NT1, N = 4): 38.13 min; Change from Day −1 in Average Sleep Latency on the MWT, LSM ([1]; 8 mg, NT1, N = 4, average of 2, 4, 6, 8 h post-dose): 37.06 min; Change from Day −1 in Average Sleep Latency on the MWT, LSM [1, 5]: 32.55 min; Change from Day −1 in Average Sleep Latency on the MWT, LSM difference vs placebo [1, 5]: 33.97 min; change from baseline in average sleep latency on MWT vs placebo ([1]; 4 patients with NT1, 2-8 hours post-dose): statistically significant improvement in sleep latency; change from baseline in average sleep latency on MWT vs placebo ([1]; 10 patients with NT1, 2-8 hours post-dose): statistically significant improvement in sleep latency; Accumulation ratio (Day 10/Day 1) AUC0-24 ([2]; 3 mg): 1.36; Accumulation ratio (Day 10/Day 1) Cmax ([2]; 3 mg): 1.68; CL/F ([2]; 3 mg, Day 10, geometric mean): 62.0 L/h; Ctrough ([2]; 3 mg, Day 10, geometric mean): 0.495 ng/mL; Accumulation ratio (Day 10/Day 1) AUC0-24 ([2]; 8 mg): 1.36; Accumulation ratio (Day 10/Day 1) Cmax ([2]; 8 mg): 1.38; CL/F ([2]; 8 mg, Day 10, geometric mean): 55.7 L/h; Ctrough ([2]; 8 mg, Day 10, geometric mean): 2.07 ng/mL; Accumulation ratio (Day 10/Day 1) AUC0-24 ([2]; 15 mg): 1.23; Accumulation ratio (Day 10/Day 1) Cmax ([2]; 15 mg): 1.15; CL/F ([2]; 15 mg, Day 10, geometric mean): 84.4 L/h; Ctrough ([2]; 15 mg, Day 10, geometric mean): 2.06 ng/mL; Accumulation ratio (Day 10/Day 1) AUC0-24 ([2]; 25 mg): 1.02; Accumulation ratio (Day 10/Day 1) Cmax ([2]; 25 mg): 1.32; CL/F ([2]; 25 mg, Day 10, geometric mean): 108 L/h; Ctrough ([2]; 25 mg, Day 10, geometric mean): 4.51 ng/mL; Cmax [2, 6]: 5.6 ng/mL; AUC(0-t) [2, 6]: 35.5 ng·h/mL; concentration at 8 h [2, 6]: 1.21 ng/mL; Tmax ([2]; human, plasma, 3 mg, Day 1, median, read-out: Tmax): 1.75 h; Cmax [2, 7]: 9.38 ng/mL; half-life [2, 7]: 9.63 h; AUC(0-t) [2, 7]: 48.4 ng·h/mL; concentration at 8 h [2, 7]: 1.39 ng/mL; Tmax ([2]; human, plasma, 3 mg, Day 10, median, read-out: Tmax): 1.5 h; Cmax [2, 8]: 16 ng/mL; AUC(0-t) [2, 8]: 104 ng·h/mL; concentration at 8 h [2, 8]: 3.89 ng/mL; Tmax ([2]; human, plasma, 8 mg, Day 1, median, read-out: Tmax): 1.75 h; Cmax [2, 9]: 22.1 ng/mL; half-life [2, 9]: 7.66 h; AUC(0-t) [2, 9]: 141 ng·h/mL; concentration at 8 h [2, 9]: 4.6 ng/mL; Tmax ([2]; human, plasma, 8 mg, Day 10, median, read-out: Tmax): 1.75 h; Cmax [2, 10]: 25.2 ng/mL; concentration at 8 h [2, 10]: 3.41 ng/mL; Tmax ([2]; human, plasma, 15 mg, Day 1, median, read-out: Tmax): 1.5 h; Cmax [2, 11]: 28.9 ng/mL; half-life [2, 11]: 14 h; concentration at 8 h [2, 11]: 4.62 ng/mL; Tmax ([2]; human, plasma, 15 mg, Day 10, median, read-out: Tmax): 1.75 h; Tmax ([2]; human, plasma, 25 mg, 3, 8, 15 and 25 mg, both Day 1 and Day 10 (range 1.0 to 6.0), read-out: median Tmax): 1.75 h; Cmax [2, 12]: 28 ng/mL; concentration at 8 h [2, 12]: 7.35 ng/mL; Tmax ([2]; human, plasma, 25 mg, Day 1, median, read-out: Tmax): 1.25 h; Cmax [2, 13]: 36.9 ng/mL; half-life [2, 13]: 15.9 h; concentration at 8 h [2, 13]: 7.39 ng/mL; Tmax ([2]; human, plasma, 25 mg, Day 10, median, read-out: Tmax): 1.5 h; Vd/F [2, 7]: 862 L; Vd/F [2, 9]: 616 L; Vd/F [2, 11]: 1700 L; Vd/F [2, 13]: 2480 L; half-life at 10 days ([2]; human, plasma, po, Day 10, 3 to 25 mg, read-out: terminal half-life following multiple oral dosing, range): 8 to 16 h; steady state expected to be achieved by ([2]; once daily dosing, from half-life): ≤ 4 days
